In PubChem BioAssay (NCI):
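These data come from cells grown in 96-well plates and exposed to compound for 48 hours at five concentrations. At the GI50, growth is halved. Definition used: TGI = concentration required for complete inhibition of growth.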

Key:
Test in all cases: NCI-60 cell line screen, 48 h
T-47D breast = system: T-47D breast
OVCAR-5 ovarian = system: OVCAR-5 ovarian
SR leukemia = system: SR leukemia
SF-539 CNS = system: SF-539 CNS
CCRF-CEM leukemia = system: CCRF-CEM leukemia
SK-MEL-28 melanoma = system: SK-MEL-28 melanoma
786-0 renal = system: 786-0 renal
U251 CNS = system: U251 CNS

SMILES	GI50 (T-47D breast) [µM]	TGI (T-47D breast) [µM]	GI50 (OVCAR-5 ovarian) [µM]	TGI (OVCAR-5 ovarian) [µM]	GI50 (SR leukemia) [µM]	TGI (SR leukemia) [µM]	GI50 (SF-539 CNS) [µM]	TGI (SF-539 CNS) [µM]	GI50 (CCRF-CEM leukemia) [µM]	TGI (CCRF-CEM leukemia) [µM]	GI50 (SK-MEL-28 melanoma) [µM]	TGI (SK-MEL-28 melanoma) [µM]	GI50 (786-0 renal) [µM]	TGI (786-0 renal) [µM]	GI50 (U251 CNS) [µM]	TGI (U251 CNS) [µM]
O=C(c1ccco1)c1nc2cc(C(F)(F)F)ccc2[n+]([O-])c1C(F)(F)F	19.2	> 100	31.5	> 100	41.4	> 100	81.8	> 100	60.2	> 100	41.4	> 100	83.6	> 100	37	> 100
O=C1CCSC(=S)N1c1ccc(Br)c(Cl)c1		39.5		> 100		> 100		> 100		> 100		34.9		62		63.7
Cc1cc(NCc2cc(Nc3ccnc4cc(Cl)ccc34)ccc2F)nc(N2CCSCC2)n1	1.97	4.71	2.21	8.25			1.79	3.35	0.473	> 100			1.6	3.13	1.76	3.28
COc1ccc(-c2nnc(SCC(=O)Nc3ccc(C(=O)/C=C/c4cc(OC)c(OC)c(OC)c4)cc3)n2-c2ccccc2)cc1OC	4.74	> 10	> 10	> 10	0.666	> 10	3.2	> 10	2.84	> 10	> 10	> 10	3.53	> 10	5.39	> 10
CCCC(C)c1c(Cl)nc(Cl)nc1Cl (centres undefined)		29		39		> 100		19		> 100		13.4		12.7		21.2
Nc1nccc2c1ccn2-c1cccc(NC(=O)c2ccc(N3CCOCC3)c(C(F)(F)F)c2)c1	1.98	29.9	1.84	> 50	0.205	> 11.3	1.02	4	1.01	> 50	1.06	> 47.5	0.905	2.58	0.664	9.35
COc1ccc(/C=C\c2cc(OC)c(OC)c(OC)c2)cc1OCC(=O)Nc1nc2ccccc2s1	1.59	> 69.6	31.9	> 100	0.0363	> 100	0.187	> 100	0.134	> 100			6.23	> 100	0.0416	> 32.9
O=C(Cn1c(C(=O)c2ccc(Cl)cc2)nc(-c2ccccc2)c1-c1ccccc1)c1ccc(Cl)cc1	> 100	> 100	> 100	> 100	> 100	> 100	> 100	> 100	> 100	> 100	> 100	> 100	> 100	> 100	> 100	> 100
CCCCCCCCNC(C)C(O)c1ccc(SC(C)C)cc1 (centres undefined)	1.32	2.85	1.76	3.23	1.99	5.71	1.9	3.4	2.44	7.19	1.83	3.27	1.73	3.34		
O=c1c2c(=NCCN3CCCC3)cc3c(=O)n(CCCN4CCOCC4)c(=O)c4ccc(c(O)n1CCCN1CCOCC1)c2c4-3	0.273	2.2	0.113	1.21	< 0.0201	5.37	0.345	1.43	0.0532	1.59	0.454	1.74	0.145	1.1	0.11	1.95
Cc1ccc(-c2cc(-c3ccc(C)cc3)nc(N3CCN(CCNc4ccnc5cc(Cl)ccc45)CC3)n2)cc1	3.21	17.9	3.84	17.6	0.675	> 50	1.68	5.84	1.77	> 50	1.91	9.82	1.81	6.95	1.43	5.39
Fc1cccc(Cl)c1Cn1c(-c2c(F)cccc2Cl)nc2ccccc21	13.9	62.9	24.9	95.8			23.1	46.2	26.2	> 100	20.4	46.2	21	42.6	19.9	47.1
CC(=O)Nc1ccc(-c2csc(Nc3cccc(-c4csc(-c5ccccc5)n4)c3)n2)cc1	43.4	> 50	> 50	> 50	27.3	> 50	23.3	> 50	> 50	> 50	6.75	36.4	21	> 50	10.4	> 50
COc1ccc(-c2nc(-c3ccccn3)c(-c3ccccn3)n2CC(C)C)cc1OC1CCCC1	9.73	> 165	26.5	> 165	7.77	49.2	33.8	99.7	7.54	59.8	38.7	159	48.7	> 165	20.6	86.9
CC[C@H]1CN(C)[C@H]2Cc3c([nH]c4ccccc34)C(=O)C[C@H]1C2C(=O)OC (some centres undefined)		> 100		> 100		> 100		> 100		> 100		> 100		> 100		> 100
CC[C@H](C)[C@H](NC(=O)NC(C)(C)C)C(=O)N(C)[C@H](C[C@@H](OC(C)=O)c1nc(C(=O)N[C@@H](Cc2ccccc2)C[C@H](C)C(=O)OC)cs1)C(C)C	> 19	> 25	2.4	> 25	0.141	> 11.4	0.628	1.82	0.718	> 25	2.97	> 25	0.609	4.59	0.82	> 25
C=C(C)[C@@H]1CC[C@]2(C(=O)O)CC[C@]3(C)[C@H](CC[C@@H]4[C@@]5(C)C/C(=C/c6cccc(I)c6)C(=O)C(C)(C)[C@@H]5CC[C@]43C)[C@@H]12	2.9	19	3.19	14.7	2.71	12.5	2.17	5.52	2.74	10.3	3.09	10.1	2.46	6.72	1.71	3.91

SMILES	GI50 (T-47D breast) [µM]	TGI (T-47D breast) [µM]	GI50 (OVCAR-5 ovarian) [µM]	TGI (OVCAR-5 ovarian) [µM]	GI50 (SR leukemia) [µM]	TGI (SR leukemia) [µM]	GI50 (SF-539 CNS) [µM]	TGI (SF-539 CNS) [µM]	GI50 (CCRF-CEM leukemia) [µM]	TGI (CCRF-CEM leukemia) [µM]	GI50 (SK-MEL-28 melanoma) [µM]	TGI (SK-MEL-28 melanoma) [µM]	GI50 (786-0 renal) [µM]	TGI (786-0 renal) [µM]	GI50 (U251 CNS) [µM]	TGI (U251 CNS) [µM]
O=C(c1nn(-c2ccc(Cl)cc2)cc1O)n1nc(C(F)(F)F)cc1-c1ccccc1	4.01	> 100		> 85			2.7	> 100	0.738	> 33.8	6.56	> 100	6.39	> 60.8	2.65	> 100
Nc1nc(-c2ccc(Cl)cc2)cc(-c2ccc(Cl)cc2)c1-c1nc2ccccc2o1	13.4	29.6	20.7	39.1	14.3	30.5	19.9	35.7	11.4	34.1	17.4	34.3	17.9	36.4	18.5	36
CN(C)CC1CCCCCC(Br)C1=O (centres undefined)		> 54.6		> 52.2		7.14		31.8		3.15		34		8.62		43
CC(C)=CC(=O)N[C@@H]1CC2CCC3C(CC[C@@]4(C)C3CC[C@@H]4C(C)N(C)C)[C@@]2(C)C[C@@H]1O (some centres undefined)	1.94	31.2	10.6	38.2			1.59	3.36	4.85	28.9	1.91	3.89	4.31	14.2	3.97	22
O=C(Oc1ccccc1Cl)c1ccccc1Nc1cccc(C(F)(F)F)c1	43.4	> 100	30.6	94.7			22.1	42.2	3.42	12.3	38.5	> 100	27.2	96.6	23.6	58.2
CCSc1ccc([C@@H]2[C@@H](N)C(=O)N2c2cc(OC)c(OC)c(OC)c2)cc1			0.892	> 100	0.0449	> 100			0.0439	> 100	3.79	> 100	0.08	> 100	0.061	> 100
O=C1CC(c2ccsc2)c2snc(-c3ccc(Cl)cc3)c2N1 (centres undefined)	0.537	> 100	5.92	> 100			2.9	> 100			3.11	> 100	7.65	> 100	1.75	> 100
O=C1/C(=C/c2ccc(Cl)cc2)CN(C(=O)CCN2CCC(=NO)CC2)C/C1=C\c1ccc(Cl)cc1	1.08	4.26	1.36	2.85	0.114		1.21	2.55	0.317	> 22.3	1.57	2.96	0.786	2.12	0.53	1.28
CCCCCCCCCCCC1=NC(C)(C)CN1CC(C)O (centres undefined)	3.27	11.2	12.3	24.8	1.47	3.75	1.67	3.14	2.85	11.9	1.75	3.26	11.8	25.9	3.3	12
O=C(CCN1CCCC1)Nc1ccc2c(NCCc3ccccc3)c3ccccc3nc2c1			0.506	2.13	0.171	1.56	0.435	1.55	0.311	1.77	0.599	1.87	0.819	2.2	0.329	1.55
N#Cc1cc([N+](=O)[O-])ccc1NC(=O)C(=O)C(C(=O)c1ccc2ccccc2c1)C1OCc2ccccc21 (centres undefined)				29.2		16.9		5.83		39.2		21.4		14.7		16.8
O=C(Cc1csc2nc(-c3ccc(Br)cc3)cn12)N/N=C/c1ccc(Cl)cc1Cl	> 100	> 100	28.6	67.3			27.2	63.8	40	> 100	> 100	> 100	25.8	73.4	20.6	44.3
O=C(O)c1cn(C2CC2)c2cc(N3CCNCC3)c(F)cc2c1=O	70	> 100	> 100	> 100					> 100	> 100	> 100	> 100	> 100	> 100		
Fc1ccc([C@@H]2CCNC[C@H]2COc2ccc3c(c2)OCO3)cc1	5.53	20.4	14.3	28.4	2.02	5.34	12.8	25.6			5.96	19	12.3	25.7	8.18	21.1
COc1cc2cnc(-c3ccccc3)cc2cc1OC		> 100		> 100		45.8		> 100				> 100		> 100		56.5
CCOC(=O)c1ccc(N(C=O)CCC(=O)CCl)cc1	1.16	3.45	0.474	9.23			0.249	0.778	0.037	1.6	1.74	15.2	0.333	4.08	0.342	10.8
CN(C)c1ccc2cc3ccc(N(C)C)cc3nc2c1		36.4		9.82				6.53				16.3		2.26		5.79
